The target of series [1] is T1, 3-oxo-5-alpha-steroid 4-dehydrogenase 1 (Homo sapiens) (UniProt P18405).
T1 sequence (whole entry): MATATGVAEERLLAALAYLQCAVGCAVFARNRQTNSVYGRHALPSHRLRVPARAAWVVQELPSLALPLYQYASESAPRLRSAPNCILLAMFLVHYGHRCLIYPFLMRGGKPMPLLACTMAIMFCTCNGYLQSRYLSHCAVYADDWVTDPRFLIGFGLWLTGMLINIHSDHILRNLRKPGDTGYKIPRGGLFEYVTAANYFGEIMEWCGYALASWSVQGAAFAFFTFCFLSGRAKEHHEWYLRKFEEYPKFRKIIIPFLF
In words: Inhibition of human 5-alpha reductase 1 expressed in LNCap cells at 10 uM. Type of series: cell-based.

Series [2] has as its target T1, 3-oxo-5-alpha-steroid 4-dehydrogenase 1 (Homo sapiens). In words: Inhibition of human 5-alpha reductase 1 expressed in LNCap cells at 1 uM. Type of series: cell-based.
The target in series [3] is T2, 3-oxo-5-alpha-steroid 4-dehydrogenase 1 (Homo sapiens, UniProt P18405).
T2 sequence (P18405 whole entry): T1 sequence (whole entry)
In words: Inhibition of human 5-alpha reductase 1 expressed in LNCap cells. The format is cell-based.

Substrate in series [4]: CCC(CC)(c1ccc(OC(=O)N(Cc2ccccc2)Cc2ccccc2)cc1)c1ccc(N(C)C(C)=O)cc1
The series can be described thus: Activity of 5-alpha reductase 1 at 1 uM.

As a reminder, the inhibition is how much of the control response was suppressed. `CCN(CC)C(=O)Oc1ccc(C(CC)(CC)c2ccc(NC(C)=O)c(C)c2)cc1C` had an inhibition in series [1] of 17%. On the same count and under the same terms, the value for `CCC(CC)(c1ccc(OC(=O)N2CCOCC2)cc1)c1ccc(N(C)C(C)=O)cc1` was 15%.

`CCC(C)N(C(=O)Oc1ccc(C(CC)(CC)c2ccc(N(C)C(C)=O)cc2)cc1)C(C)CC` (configuration not stated) showed an inhibition in series [2] of 22%.

The molecule `CCN(CC)C(=O)Oc1ccc(C2(c3ccc(N(C)C(C)=O)cc3)CCCCCC2)cc1` had an inhibition in series [1] of 25%.

As a reminder, the IC50 is the concentration needed to halve the response being measured. A lower IC50 goes with higher potency. Turning to `CCN(CC)C(=O)Oc1ccc(C(CC)(CC)c2ccc(N(C)C(C)=O)cc2)cc1`, the IC50 in series [3] was 9.2 µM. For the same molecule, in series [1], the inhibition was 65%. In series [3], `CCC(CC)(c1ccc(OC(=O)N(Cc2ccccc2)Cc2ccccc2)cc1)c1ccc(N(C)C(C)=O)cc1` came in with an IC50 of 0.84 µM. In series [2], this molecule showed an inhibition of 51%.

In turn, `CCCCN(CCCC)C(=O)Oc1ccc(C(CC)(CC)c2ccc(N(C)C(C)=O)cc2)cc1` yielded an inhibition in series [2] of 32%. `CCN(CC)C(=O)Oc1ccc(C(C)(C)c2ccc(N(C)C(C)=O)cc2)cc1` came in with an inhibition in series [1] of 16%.

The molecule `CCC(CC)(c1ccc(OC(=O)N2CCN(C)CC2)cc1)c1ccc(N(C)C(C)=O)cc1` gave an inhibition in series [1] of 17%. On the same count and under the same terms, under `CCCC(CCC)(c1ccc(OC(=O)N(CC)CC)cc1)c1ccc(N(C)C(C)=O)cc1` stands 27%; under `CCN(CC)C(=O)Oc1ccc(C2(c3ccc(N(C)C(C)=O)cc3)CCCCC2)cc1`, 46%. In series [3], `CCC(CC)(c1ccc(OC(=O)N2CCCCCC2)cc1)c1ccc(N(C)C(C)=O)cc1` gave an IC50 of 4.7 µM. In series [1], this molecule had an inhibition of 70%. Take `CCC(CC)(c1ccc(OC(=O)N2CCCC2)cc1)c1ccc(N(C)C(C)=O)cc1`: the inhibition in series [1] is 57%.

For `CCN(CC)C(=O)Oc1ccc(C2(c3ccc(N(C)C(C)=O)cc3)CCC2)cc1`, the inhibition in series [1] amounted to 16%. `CCC(CC)(c1ccc(OC(=O)N2CCCCC2)cc1)c1ccc(N(C)C(C)=O)cc1` had an IC50 in series [3] of 4.7 µM. For the same molecule, the inhibition in series [1] worked out at 68%. With `CCN(CC)C(=O)Oc1ccc(C(CC)(CC)c2ccc(N(C)C(C)=O)cc2)cc1C`, the inhibition in series [1] is 56%.

Molecule `CCCN(CCC)C(=O)Oc1ccc(C(CC)(CC)c2ccc(N(C)C(C)=O)cc2)cc1` returned an IC50 in series [3] of 2.9 µM. The inhibition is 77% in series [1] and 26% in series [2]. Regarding `CCN(CC)C(=O)Oc1ccc(C2(c3ccc(N(C)C(C)=O)cc3)CCCC2)cc1`, in series [1], the inhibition turned out to be 5%. On to `CCN(CC)C(=O)Oc1ccc(C(CC)(CC)c2ccc(N(C)C(C)=O)c(C)c2)cc1C`, for which, in series [1], the inhibition is 22%. In series [3], `CCC(CC)(c1ccc(OC(=O)N(C(C)C)C(C)C)cc1)c1ccc(N(C)C(C)=O)cc1` gave an IC50 of 4 µM. In series [1], this molecule had an inhibition of 72%. Turning to `CCC(CC)(c1ccc(OC(=O)N2CCCCCCC2)cc1)c1ccc(N(C)C(C)=O)cc1`, in series [2], the inhibition came out at 20%.

`CCN(CC)C(=O)Oc1ccc(C(CC)(CC)c2ccc(N(C)C(C)=O)c(C)c2)cc1` had an inhibition in series [1] of 25%.

The molecule `CCC(CC)(c1ccc(OC(=O)N(C)C)cc1)c1ccc(N(C)C(C)=O)cc1` yielded an inhibition in series [1] of 29%.

B1: 3-oxo-5-alpha-steroid 4-dehydrogenase 1 (Homo sapiens), P18405 (protein)
chain: T1 sequence (whole entry)
By Km is commonly meant the substrate concentration at which the rate is half of its maximum. Broadly, the Vmax is the top rate of the reaction or transport when substrate is in excess. As for B1, in series [4], the Km was 9.1 µM and the Vmax amounted to 13.4 nM/h.

(Values after ChEMBL document CHEMBL1139779, “3,3-diphenylpentane skeleton as a steroid skeleton substitute: novel inhibitors of human 5alpha-reductase 1” (Bioorg Med Chem Lett, 2007).)
